Active and inactive are the calls of the source. No cut-off for these calls is given here.
Columns and labels:
Rattus norvegicus = assay: Hypouricemic activity in overnight-fasted Sprague-Dawley rat model of Potassium oxonate-induced acute hyperuricemia assessed as decrease in serum uric acid at 10 mg/kg, po administered after potassium oxonate treatment and measured up to 5 hrs relative to control; type: functional, organism-based
[1] = biological target: T1, Xanthine dehydrogenase/oxidase (Homo sapiens, UniProt P47989); assay: Mixed-type inhibition of xanthine oxidase (unknown origin) assessed as Inhibitor dissociation constant using xanthine as substrate incubated for 15 mins followed by substrate addition by UV spectrophotometric analysis; details: read-out: Kis
T1 sequence (P47989 whole entry): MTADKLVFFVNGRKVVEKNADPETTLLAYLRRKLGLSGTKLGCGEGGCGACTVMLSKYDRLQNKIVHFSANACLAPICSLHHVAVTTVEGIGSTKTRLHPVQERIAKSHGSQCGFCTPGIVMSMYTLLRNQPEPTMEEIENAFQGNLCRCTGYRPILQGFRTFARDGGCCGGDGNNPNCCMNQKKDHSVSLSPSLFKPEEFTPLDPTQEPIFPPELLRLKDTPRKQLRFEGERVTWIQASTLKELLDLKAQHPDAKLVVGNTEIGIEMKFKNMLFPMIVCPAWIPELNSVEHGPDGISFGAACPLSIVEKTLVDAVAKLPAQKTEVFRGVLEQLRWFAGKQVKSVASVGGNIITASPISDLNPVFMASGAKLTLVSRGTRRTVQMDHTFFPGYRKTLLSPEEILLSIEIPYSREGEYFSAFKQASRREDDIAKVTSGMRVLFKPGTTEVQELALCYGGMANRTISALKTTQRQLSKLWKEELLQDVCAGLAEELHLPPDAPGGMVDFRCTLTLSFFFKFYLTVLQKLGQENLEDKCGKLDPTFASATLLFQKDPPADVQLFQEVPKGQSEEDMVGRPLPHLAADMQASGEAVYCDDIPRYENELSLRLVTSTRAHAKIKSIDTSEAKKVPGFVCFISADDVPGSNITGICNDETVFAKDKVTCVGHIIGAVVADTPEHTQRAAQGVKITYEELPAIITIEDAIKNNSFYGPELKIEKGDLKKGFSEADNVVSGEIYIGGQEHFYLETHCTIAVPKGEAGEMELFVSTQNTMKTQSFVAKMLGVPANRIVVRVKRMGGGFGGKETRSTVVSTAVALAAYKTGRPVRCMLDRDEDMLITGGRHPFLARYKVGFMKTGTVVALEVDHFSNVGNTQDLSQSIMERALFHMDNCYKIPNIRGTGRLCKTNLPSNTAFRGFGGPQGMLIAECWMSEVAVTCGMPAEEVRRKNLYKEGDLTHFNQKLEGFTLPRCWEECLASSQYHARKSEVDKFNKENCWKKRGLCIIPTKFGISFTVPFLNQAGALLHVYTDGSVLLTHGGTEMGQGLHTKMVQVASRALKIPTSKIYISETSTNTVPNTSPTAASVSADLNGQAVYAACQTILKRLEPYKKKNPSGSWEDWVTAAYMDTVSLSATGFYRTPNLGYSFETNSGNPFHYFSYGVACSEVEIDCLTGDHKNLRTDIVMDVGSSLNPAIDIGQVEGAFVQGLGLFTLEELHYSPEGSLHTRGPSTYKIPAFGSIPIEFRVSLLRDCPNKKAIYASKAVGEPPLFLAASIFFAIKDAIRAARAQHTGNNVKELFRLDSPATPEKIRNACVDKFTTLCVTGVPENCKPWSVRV

[2] = biological target: T1, Xanthine dehydrogenase/oxidase
Description: Inhibition of xanthine oxidase (unknown origin) using xanthine as substrate preincubated for 15 mins followed by substrate addition by UV spectrophotometric analysis

Compound | Activity (Rattus norvegicus) | Ki [1] [µM] | IC50 [2] [µM]
CC(C)Oc1ccc(-c2ncc3c(=O)[nH][nH]c3n2)cc1C#N | Active |  | 
CC(C)Oc1ccc(-c2nccc(C(=O)O)n2)cc1C#N | Active |  | 
Cc1nc(-c2ccc(OCC(C)C)c(C#N)c2)sc1C(=O)O [FEBUXOSTAT] |  | 0.0009 | 0.028

From ChEMBL document CHEMBL5154687, “Intramolecular hydrogen bond interruption and scaffold hopping of TMC-5 led to 2-(4-alkoxy-3-cyanophenyl)pyrimidine-4/5-carboxylic acids and 6-(4-alkoxy-3-cyanophenyl)-1,2-dihydro-3H-pyrazolo[3,4-d]pyrimidin-3-ones as potent pyrimidine-based xanthine oxidase inhibitors” (Eur J Med Chem, 2022)
